Earlier results in US12280058B2, “Gasotransmitter metabolites and Alzheimer's disease” (Board of Supervisors of Louisiana State University and …, priority 2020, dated 2025).

Tests used:
CSE = CSE (Homo sapiens, UniProt P32929); conditions: read-out: IC50 (CSE inhibitor)
infarct = conditions: administration

CSE, sequence (P32929 whole entry, species assumed): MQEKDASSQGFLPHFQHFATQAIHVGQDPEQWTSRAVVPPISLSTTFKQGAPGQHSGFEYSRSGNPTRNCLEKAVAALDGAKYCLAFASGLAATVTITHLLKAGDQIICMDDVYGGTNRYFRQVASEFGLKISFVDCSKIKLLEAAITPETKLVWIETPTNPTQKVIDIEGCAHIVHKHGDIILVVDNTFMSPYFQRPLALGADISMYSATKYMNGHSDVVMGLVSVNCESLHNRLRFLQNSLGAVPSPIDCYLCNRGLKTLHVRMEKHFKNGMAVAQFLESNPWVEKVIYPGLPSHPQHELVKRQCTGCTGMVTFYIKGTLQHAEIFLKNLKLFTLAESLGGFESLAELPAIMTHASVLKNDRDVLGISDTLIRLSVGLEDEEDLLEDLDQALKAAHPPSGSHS

C#CC[C@H](N)C(=O)O
IC50 (CSE): 40 µM

NCCO/C=C/[C@H](N)C(=O)O [L-aminoethoxyvinylglycine]
IC50 (CSE): < 1 µM

CCOc1ccc2nc(Sc3nc(Nc4cccc([N+](=O)[O-])c4)nc(Nc4cc(OC)ccc4OC)n3)sc2c1 [compound 1157172, 2-[(4-(2,5-dimethoxyanilino)-6-(3-nitroanilino)-1,3,5-triazin-2-yl)sulfanyl]-6-ethoxy-1,3-benzothiazole]
IC50 (CSE): 30 µM

S [sodium hydrosulfide]
infarct volume / size of infarct (infarct): increased infarct volume
